Results: ChEMBL document CHEMBL5696441 (Nat Chem Biol, 2011)

Tests used:
[1] = tested on: Tyrosine-protein kinase ABL1 (Homo sapiens), P00519 [F317I]; assay: Inhibition of ABL1 F317I mutant (unknown origin) assessed as remaining activity at 1 uM by Kinome scan method relative to control
[2] = biological target: Cyclin-dependent kinase 2 (Homo sapiens) (UniProt P24941); assay: Inhibition of CDK2 (unknown origin) assessed as remaining activity at 1 uM by Kinome scan method relative to control
[3] = biological target: T1, Homeodomain-interacting protein kinase 4 (Homo sapiens) (UniProt Q8NE63); assay: Inhibition of HIPK4 (unknown origin) assessed as remaining activity at 1 uM by Kinome scan method relative to control
T1 sequence (whole entry): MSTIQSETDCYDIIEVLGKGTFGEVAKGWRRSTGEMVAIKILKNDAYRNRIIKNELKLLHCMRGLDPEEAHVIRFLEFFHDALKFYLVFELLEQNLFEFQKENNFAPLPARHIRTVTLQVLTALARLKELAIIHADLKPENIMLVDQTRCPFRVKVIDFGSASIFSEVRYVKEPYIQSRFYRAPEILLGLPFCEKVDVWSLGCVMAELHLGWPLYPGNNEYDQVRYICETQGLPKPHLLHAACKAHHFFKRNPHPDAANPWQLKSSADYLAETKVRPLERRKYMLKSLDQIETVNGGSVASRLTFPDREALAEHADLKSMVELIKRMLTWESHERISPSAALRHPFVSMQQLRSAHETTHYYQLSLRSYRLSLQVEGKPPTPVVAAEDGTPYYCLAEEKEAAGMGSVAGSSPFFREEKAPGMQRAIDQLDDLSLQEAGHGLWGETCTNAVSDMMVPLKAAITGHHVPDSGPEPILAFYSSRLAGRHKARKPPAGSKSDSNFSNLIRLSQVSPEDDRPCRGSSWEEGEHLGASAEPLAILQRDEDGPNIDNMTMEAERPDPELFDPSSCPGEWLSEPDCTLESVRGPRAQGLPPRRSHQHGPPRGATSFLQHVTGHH

[4] = biological target: Hormonally up-regulated neu tumor-associated kinase (Homo sapiens) (UniProt P57058); assay: Inhibition of HUNK (unknown origin) assessed as remaining activity at 1 uM by Kinome scan method relative to control
[5] = biological target: Myosin light chain kinase, smooth muscle (Homo sapiens) (UniProt Q15746); assay: Inhibition of MYLK (unknown origin) assessed as remaining activity at 1 uM by Kinome scan method relative to control
Myosin light chain kinase, smooth muscle (Homo sapiens), sequence (Q15746 whole entry): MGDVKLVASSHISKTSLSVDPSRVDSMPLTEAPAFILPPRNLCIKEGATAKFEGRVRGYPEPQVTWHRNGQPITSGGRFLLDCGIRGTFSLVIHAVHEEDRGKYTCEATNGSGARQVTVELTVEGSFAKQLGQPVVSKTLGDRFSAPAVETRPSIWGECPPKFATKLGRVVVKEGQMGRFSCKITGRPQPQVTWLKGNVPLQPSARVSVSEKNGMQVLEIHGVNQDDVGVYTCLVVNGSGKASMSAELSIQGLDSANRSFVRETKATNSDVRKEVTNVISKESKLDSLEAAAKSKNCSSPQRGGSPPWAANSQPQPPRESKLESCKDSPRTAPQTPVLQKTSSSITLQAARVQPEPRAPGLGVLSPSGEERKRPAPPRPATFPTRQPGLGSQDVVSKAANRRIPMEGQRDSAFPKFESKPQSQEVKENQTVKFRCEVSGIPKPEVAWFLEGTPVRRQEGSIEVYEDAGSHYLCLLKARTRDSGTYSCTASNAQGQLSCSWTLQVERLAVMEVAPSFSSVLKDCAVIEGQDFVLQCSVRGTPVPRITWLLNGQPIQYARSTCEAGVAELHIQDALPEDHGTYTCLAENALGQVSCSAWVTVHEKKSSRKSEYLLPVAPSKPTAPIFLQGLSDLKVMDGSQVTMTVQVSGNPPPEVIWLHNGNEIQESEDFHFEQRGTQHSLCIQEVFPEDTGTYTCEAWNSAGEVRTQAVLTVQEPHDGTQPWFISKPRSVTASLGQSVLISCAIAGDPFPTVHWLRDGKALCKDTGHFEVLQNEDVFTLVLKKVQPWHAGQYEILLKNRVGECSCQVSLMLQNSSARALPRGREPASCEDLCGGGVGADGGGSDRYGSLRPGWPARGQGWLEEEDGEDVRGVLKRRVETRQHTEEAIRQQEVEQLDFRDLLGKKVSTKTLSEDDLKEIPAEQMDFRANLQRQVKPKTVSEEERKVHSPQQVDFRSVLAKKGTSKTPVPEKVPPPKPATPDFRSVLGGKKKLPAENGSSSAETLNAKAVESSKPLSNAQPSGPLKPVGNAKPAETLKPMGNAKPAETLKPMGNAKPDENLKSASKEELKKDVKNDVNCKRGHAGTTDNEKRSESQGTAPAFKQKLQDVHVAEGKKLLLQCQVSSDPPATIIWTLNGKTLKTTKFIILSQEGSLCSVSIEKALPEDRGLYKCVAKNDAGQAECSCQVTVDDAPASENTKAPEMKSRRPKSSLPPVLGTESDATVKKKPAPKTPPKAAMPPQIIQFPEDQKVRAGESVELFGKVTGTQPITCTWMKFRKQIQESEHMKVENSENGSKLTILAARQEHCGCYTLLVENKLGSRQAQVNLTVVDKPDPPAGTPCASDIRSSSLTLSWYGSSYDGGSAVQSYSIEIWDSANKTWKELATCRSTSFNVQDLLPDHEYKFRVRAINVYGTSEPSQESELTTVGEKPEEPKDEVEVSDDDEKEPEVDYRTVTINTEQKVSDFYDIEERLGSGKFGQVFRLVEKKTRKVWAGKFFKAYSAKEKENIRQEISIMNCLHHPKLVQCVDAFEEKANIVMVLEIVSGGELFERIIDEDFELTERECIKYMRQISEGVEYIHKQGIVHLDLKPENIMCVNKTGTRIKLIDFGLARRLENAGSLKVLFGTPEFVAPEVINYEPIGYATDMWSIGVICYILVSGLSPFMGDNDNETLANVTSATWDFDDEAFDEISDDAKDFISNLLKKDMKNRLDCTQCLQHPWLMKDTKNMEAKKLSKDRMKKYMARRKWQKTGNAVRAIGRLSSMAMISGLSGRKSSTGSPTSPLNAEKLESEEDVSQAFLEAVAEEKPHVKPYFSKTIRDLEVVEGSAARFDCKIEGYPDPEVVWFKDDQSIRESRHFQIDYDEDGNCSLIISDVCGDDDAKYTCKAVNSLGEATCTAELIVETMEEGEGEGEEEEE

[6] = biological target: Myosin light chain kinase 2, skeletal/cardiac muscle (Homo sapiens) (UniProt Q9H1R3); assay: Inhibition of MYLK2 (unknown origin) assessed as remaining activity at 1 uM by Kinome scan method relative to control
Myosin light chain kinase 2, skeletal/cardiac muscle (Homo sapiens), sequence (Q9H1R3 whole entry): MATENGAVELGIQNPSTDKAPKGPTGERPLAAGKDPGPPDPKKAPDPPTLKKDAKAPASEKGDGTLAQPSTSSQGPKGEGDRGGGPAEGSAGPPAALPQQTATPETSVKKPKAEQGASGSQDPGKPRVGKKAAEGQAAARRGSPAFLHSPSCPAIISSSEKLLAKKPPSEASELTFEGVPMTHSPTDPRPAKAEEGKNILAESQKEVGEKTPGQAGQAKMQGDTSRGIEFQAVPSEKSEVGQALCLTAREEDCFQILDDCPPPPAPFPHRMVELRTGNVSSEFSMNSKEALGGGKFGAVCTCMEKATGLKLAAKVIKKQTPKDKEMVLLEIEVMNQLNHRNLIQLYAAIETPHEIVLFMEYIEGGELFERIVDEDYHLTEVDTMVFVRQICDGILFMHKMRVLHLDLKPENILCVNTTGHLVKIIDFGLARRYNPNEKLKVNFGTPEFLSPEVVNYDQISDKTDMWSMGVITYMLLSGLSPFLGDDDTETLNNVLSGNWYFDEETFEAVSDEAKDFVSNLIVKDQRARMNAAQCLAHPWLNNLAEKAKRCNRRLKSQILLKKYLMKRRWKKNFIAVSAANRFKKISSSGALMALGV

[7] = biological target: T2, Serine/threonine-protein kinase Nek2 (Homo sapiens) (UniProt P51955); assay: Inhibition of NEK2 (unknown origin) assessed as remaining activity at 1 uM by Kinome scan method relative to control
T2 sequence (whole entry): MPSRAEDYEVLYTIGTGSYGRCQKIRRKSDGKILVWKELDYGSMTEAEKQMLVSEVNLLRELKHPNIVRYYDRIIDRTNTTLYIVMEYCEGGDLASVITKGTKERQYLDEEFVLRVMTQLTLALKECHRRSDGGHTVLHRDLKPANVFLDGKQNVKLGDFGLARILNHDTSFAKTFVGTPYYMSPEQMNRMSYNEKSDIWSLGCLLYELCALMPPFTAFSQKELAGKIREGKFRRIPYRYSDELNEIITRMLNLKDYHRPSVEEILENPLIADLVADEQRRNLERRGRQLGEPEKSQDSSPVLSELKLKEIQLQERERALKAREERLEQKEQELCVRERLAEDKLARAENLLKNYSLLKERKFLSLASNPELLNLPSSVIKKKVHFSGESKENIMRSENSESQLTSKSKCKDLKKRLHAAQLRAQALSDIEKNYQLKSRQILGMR

[8] = biological target: Cyclin-dependent kinase 17 (Homo sapiens) (UniProt Q00537); assay: Inhibition of PCTK2 (unknown origin) assessed as remaining activity at 1 uM by Kinome scan method relative to control
Cyclin-dependent kinase 17 (Homo sapiens), sequence (Q00537 whole entry, looked up): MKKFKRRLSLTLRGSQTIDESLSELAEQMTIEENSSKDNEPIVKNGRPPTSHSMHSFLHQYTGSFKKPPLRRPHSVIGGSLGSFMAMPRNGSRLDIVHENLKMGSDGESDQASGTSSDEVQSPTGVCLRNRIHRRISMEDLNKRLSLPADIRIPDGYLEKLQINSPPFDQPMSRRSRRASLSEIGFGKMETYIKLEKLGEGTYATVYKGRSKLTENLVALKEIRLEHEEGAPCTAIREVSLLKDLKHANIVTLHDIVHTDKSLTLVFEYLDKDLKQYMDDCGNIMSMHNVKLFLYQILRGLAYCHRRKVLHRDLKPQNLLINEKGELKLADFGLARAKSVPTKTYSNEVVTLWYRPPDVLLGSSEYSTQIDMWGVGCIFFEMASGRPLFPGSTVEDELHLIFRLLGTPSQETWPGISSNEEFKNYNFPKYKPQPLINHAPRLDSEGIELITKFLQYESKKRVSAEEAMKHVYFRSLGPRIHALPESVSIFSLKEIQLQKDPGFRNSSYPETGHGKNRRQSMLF

[9] = biological target: Interferon-induced, double-stranded RNA-activated protein kinase (Homo sapiens) (UniProt P19525); assay: Inhibition of PRKR (unknown origin) assessed as remaining activity at 1 uM by Kinome scan method relative to control
Interferon-induced, double-stranded RNA-activated protein kinase (Homo sapiens), sequence (P19525 whole entry): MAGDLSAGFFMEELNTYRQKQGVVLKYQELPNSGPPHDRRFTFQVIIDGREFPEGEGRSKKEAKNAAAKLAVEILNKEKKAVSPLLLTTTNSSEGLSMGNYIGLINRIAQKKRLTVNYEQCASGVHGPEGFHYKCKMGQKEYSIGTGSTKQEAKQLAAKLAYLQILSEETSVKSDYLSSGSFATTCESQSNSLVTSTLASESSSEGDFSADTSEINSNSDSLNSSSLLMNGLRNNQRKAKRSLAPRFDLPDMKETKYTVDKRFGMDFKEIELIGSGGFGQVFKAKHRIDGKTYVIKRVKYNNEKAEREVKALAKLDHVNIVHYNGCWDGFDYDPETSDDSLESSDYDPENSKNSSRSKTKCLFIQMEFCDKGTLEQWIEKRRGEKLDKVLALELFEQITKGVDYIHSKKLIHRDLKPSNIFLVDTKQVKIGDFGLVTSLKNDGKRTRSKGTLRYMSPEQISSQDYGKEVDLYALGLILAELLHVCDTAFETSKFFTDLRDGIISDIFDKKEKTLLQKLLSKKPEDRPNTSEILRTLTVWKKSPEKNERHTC

[10] = biological target: T3, Tyrosine-protein kinase Tec (Homo sapiens) (UniProt P42680); assay: Inhibition of TEC (unknown origin) assessed as remaining activity at 1 uM by Kinome scan method relative to control
T3 sequence (whole entry): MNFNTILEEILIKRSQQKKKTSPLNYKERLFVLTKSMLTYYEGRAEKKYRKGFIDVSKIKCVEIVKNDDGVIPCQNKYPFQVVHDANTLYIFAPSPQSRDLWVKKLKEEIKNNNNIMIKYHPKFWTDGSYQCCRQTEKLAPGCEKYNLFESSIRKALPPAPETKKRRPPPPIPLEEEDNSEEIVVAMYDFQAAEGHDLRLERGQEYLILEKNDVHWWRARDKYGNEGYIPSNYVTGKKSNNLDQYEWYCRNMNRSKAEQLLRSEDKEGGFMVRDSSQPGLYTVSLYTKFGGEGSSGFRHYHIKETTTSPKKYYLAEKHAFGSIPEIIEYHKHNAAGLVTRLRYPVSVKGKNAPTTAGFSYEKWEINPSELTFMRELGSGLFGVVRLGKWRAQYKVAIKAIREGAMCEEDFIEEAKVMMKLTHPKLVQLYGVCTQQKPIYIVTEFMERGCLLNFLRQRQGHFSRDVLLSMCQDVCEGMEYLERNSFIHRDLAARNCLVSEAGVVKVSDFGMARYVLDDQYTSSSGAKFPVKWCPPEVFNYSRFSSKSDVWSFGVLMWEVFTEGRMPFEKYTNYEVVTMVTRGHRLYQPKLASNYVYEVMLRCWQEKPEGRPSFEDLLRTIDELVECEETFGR

[11] = biological target: T4, TGF-beta receptor type-1 (Homo sapiens) (UniProt P36897); assay: Inhibition of TGFBR1 (unknown origin) assessed as remaining activity at 1 uM by Kinome scan method relative to control
T4 sequence (whole entry): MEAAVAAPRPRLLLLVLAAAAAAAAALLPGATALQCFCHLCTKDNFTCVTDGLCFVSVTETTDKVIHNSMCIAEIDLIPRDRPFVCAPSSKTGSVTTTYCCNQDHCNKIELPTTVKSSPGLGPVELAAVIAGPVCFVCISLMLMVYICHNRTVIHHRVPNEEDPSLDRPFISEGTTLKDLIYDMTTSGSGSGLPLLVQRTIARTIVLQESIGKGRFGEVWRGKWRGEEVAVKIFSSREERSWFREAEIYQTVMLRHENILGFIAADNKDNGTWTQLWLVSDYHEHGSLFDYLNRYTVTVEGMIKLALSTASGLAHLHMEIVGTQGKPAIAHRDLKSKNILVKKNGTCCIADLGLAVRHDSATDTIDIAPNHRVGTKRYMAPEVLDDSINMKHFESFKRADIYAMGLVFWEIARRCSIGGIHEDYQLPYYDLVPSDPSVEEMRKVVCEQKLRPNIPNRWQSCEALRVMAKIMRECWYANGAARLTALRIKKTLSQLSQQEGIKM

Tyrosine-protein kinase ABL1 (Homo sapiens), P00519 [F317I], sequence (P00519 whole entry F317I): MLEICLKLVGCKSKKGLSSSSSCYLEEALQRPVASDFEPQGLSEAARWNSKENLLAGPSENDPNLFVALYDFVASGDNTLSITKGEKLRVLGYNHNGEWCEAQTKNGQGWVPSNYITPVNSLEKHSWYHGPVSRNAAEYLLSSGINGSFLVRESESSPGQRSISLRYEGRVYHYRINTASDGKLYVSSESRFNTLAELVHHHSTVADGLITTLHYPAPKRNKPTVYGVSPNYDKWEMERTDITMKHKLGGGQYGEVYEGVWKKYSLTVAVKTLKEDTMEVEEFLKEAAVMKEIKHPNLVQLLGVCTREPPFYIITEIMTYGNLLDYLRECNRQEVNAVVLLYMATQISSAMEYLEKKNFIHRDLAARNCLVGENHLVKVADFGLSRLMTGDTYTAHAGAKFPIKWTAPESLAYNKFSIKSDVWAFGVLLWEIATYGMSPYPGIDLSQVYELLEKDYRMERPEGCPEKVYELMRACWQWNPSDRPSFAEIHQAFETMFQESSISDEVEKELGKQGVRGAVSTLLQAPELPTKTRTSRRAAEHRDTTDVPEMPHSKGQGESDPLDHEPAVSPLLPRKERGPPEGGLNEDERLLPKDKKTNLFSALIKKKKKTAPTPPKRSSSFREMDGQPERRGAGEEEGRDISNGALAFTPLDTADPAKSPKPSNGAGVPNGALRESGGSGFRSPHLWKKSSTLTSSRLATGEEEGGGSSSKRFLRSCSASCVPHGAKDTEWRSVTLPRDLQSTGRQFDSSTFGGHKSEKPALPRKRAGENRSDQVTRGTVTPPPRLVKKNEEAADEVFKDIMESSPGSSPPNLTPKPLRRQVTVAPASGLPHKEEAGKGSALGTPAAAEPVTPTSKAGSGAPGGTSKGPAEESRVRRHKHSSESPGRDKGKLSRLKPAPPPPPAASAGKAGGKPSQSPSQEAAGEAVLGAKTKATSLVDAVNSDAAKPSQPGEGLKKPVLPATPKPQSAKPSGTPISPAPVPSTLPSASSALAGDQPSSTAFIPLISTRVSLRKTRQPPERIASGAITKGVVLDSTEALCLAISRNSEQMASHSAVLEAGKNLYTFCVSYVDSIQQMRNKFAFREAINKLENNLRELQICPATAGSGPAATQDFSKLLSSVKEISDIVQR

Compound	Activity [1] [%]	Activity [2] [%]	Activity [3] [%]	Activity [4] [%]	Activity [5] [%]	Activity [6] [%]	Activity [7] [%]	Activity [8] [%]	Activity [9] [%]	Activity [10] [%]	Activity [11] [%]
Nc1ccccc1Nc1ccc2c(c1)CCc1ccccc1C2=O	78	97	97	91	72	87	90	93	86	98	90
O=C1c2ccc(Nc3ccc(F)cc3F)cc2CCc2ccc(OC[C@H](O)CO)cc21 [Skepinone-L]	92	98	100	96	97	90	94	89	82	99	100
